Converted amounts (≈) assume the structure as drawn. The source made the active and inactive calls. The rule behind the calls is not given here.
Assays:
[1] = test system: Saccharomyces cerevisiae; assay: Antifungal activity against Saccharomyces cerevisiae PM503 assessed as zone of inhibition after 48 hrs; format: functional, organism-based
[2] = test system: Saccharomyces cerevisiae; assay: Antifungal activity against Saccharomyces cerevisiae PM503 after 48 hrs; format: functional; details: PM503, 48 h

Row | Structure (SMILES) | Activity [1] | MIC [2] [µg/mL]
1 | C/C1=C/C(=O)[C@@H](O)[C@@]2(CO2)[C@@H]2CC(C)(C)[C@H]2CC1 | inactive | 
2 | C/C1=C/C(=O)[C@@H](O)[C@@H](CO)[C@@H]2CC(C)(C)[C@H]2CC1 | inactive | 60 (≈ 238 µM)
3 | C/C1=C/[C@H](O)C(=O)[C@@H](CO)[C@@H]2CC(C)(C)[C@H]2CC1 | inactive | 
4 | C=C1CC[C@H]2[C@@H](CC2(C)C)[C@H]2CO[C@@](O)(C1)C2=O | inactive | 

Source: ChEMBL document CHEMBL1152316, “Caryophyllenes from a fungal culture of Chrysosporium pilosum” (2009)
